The results in this text go back to paper PMC6627609, “Targeting Quorum Sensing: High-Throughput Screening to Identify Novel LsrK Inhibitors” (International Journal of Molecular Sciences, 2019).

Counter-ions that a name gives are not always drawn.

Chain of LsrK (Q8ZKQ6 whole entry): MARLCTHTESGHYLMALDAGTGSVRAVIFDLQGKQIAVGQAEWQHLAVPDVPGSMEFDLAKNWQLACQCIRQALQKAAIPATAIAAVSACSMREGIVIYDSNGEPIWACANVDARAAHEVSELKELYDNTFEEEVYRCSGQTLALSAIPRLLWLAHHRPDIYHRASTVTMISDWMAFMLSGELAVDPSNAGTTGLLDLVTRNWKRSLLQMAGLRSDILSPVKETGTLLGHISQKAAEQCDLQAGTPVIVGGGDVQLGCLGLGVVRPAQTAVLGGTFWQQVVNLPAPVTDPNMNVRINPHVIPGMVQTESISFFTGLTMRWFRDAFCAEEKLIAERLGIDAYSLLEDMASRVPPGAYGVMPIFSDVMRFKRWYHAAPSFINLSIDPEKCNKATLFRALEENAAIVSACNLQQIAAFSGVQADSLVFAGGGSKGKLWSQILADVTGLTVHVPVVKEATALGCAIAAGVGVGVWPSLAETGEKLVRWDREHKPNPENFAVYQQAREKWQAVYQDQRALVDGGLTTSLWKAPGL

The first assay concerns the target LsrK (Salmonella typhimurium, UniProt Q8ZKQ6). As to the kind of experiment: biochemical. It counts as biochemical, S. typhimurium.
Conditions: not given
The inhibition is the relative decrease from the control value, in per cent. Read a low inhibition as little suppression. As for `NC[C@@H]1CC[C@@H](N)[C@@H](O[C@H]2[C@H](O)[C@@H](O[C@H]3O[C@H](CO)[C@@H](O)[C@H](N)[C@H]3O)[C@H](N)C[C@@H]2N)O1` [DIBEKACIN], at 50 µM the inhibition was 0%.

The compound `C[C@]12CC[C@@H]3c4ccc(O)cc4CC[C@H]3[C@@H]1CC[C@@H]2OC(=O)CCC1CCCC1` [ESTRADIOL CYPIONATE] showed an inhibition at 50 µM of 0%.

`C[N+]1(C)[C@@H]2CC[C@H]1C[C@@H](OC(=O)C(O)c1ccccc1)C2` (stereo partly drawn) [HOMATROPINE METHYLBROMIDE] yielded an inhibition at 50 µM of 0%.

The compound `O=c1[nH]cnc2nc[nH]c12` [HYPOXANTHINE] showed an inhibition at 50 µM of 2%.

`O=C(O)/C=C/C=C/c1ccc2c(c1)OCO2` [PIPERIC ACID] yielded an inhibition at 50 µM of 0%.

Turning to `CCNC(=O)CC[C@H](N)C(=O)O` [THEANINE], 50 µM produced 1% inhibition.

The compound `COc1ccc2c(c1)OC1(O)COc3cc(OC)c(OC)cc3C1=C2` (stereo not drawn) [12a-HYDROXY-5-DEOXYDEHYDROMUNDUSERONE] yielded an inhibition at 50 µM of 0%.

With `Cc1cc(=O)[nH]c(=S)[nH]1` [METHYLTHIOURACIL], at 50 µM the inhibition was 4%.

In the case of `CCC[C@@H]1C[C@@H](C(=O)N[C@@H]([C@H]2O[C@H](SC)[C@H](O)[C@@H](O)[C@H]2O)[C@@H](C)O)N(C)C1` [LINCOMYCIN HYDROCHLORIDE], the inhibition at 50 µM was 0%.

For the compound `O=C(O)c1cn(C2CC2)c2cc(N3CCNCC3)c(F)cc2c1=O` [CIPROFLOXACIN], the inhibition at 50 µM came to 1%.

For `C[C@H](CCC(=O)NCC(=O)O)[C@H]1CC[C@H]2[C@@H]3[C@H](O)C[C@@H]4C[C@H](O)CC[C@]4(C)[C@H]3C[C@H](O)[C@]12C` [GLYCOCHOLIC ACID], the inhibition at 50 µM worked out at 1%.

`CC1(C)S[C@@H]2[C@H](NC(=O)Cc3ccccc3)C(=O)N2[C@H]1C(=O)O` [PENICILLIN G POTASSIUM]: at 50 µM the inhibition was 4%.

As to `CCOC(=O)OC(C)OC(=O)[C@@H]1N2C(=O)[C@@H](NC(=O)[C@H](N)c3ccccc3)[C@H]2SC1(C)C` (stereo partly drawn) [BACAMPICILLIN HYDROCHLORIDE], the inhibition at 50 µM came to 5%.

`CC(C)CCC[C@@H](C)[C@H]1CC[C@H]2[C@@H]3CC(=O)[C@H]4C[C@@H](O)CC[C@]4(C)[C@H]3CC[C@]12C` [5alpha-CHOLESTAN-3beta-OL-6-ONE]: the inhibition at 50 µM was determined as 1%.

As for `CCN(CC)C(=O)N1CCN(C)CC1` [DIETHYLCARBAMAZINE CITRATE], the inhibition at 50 µM was 1%.

As for `O=NN(CCCl)C(=O)NCCCl` [CARMUSTINE], at 50 µM the inhibition was 10%.

Compound `NCCCCN=C(N)N` [AGMATINE SULFATE] displayed an inhibition at 50 µM of 0%.

The compound `CCCCCCCCCCCCCCCC(=O)OC/C=C(C)/C=C/C=C(C)/C=C/C1=C(C)CCCC1(C)C` [RETINYL PALMITATE] yielded an inhibition at 50 µM of 15%.

For the compound `CC[N+](CC)(CC)CCOc1cccc(OCC[N+](CC)(CC)CC)c1OCC[N+](CC)(CC)CC` [GALLAMINE TRIETHIODIDE], the inhibition at 50 µM amounted to 1%.

Staying with this assay, now noted: 50 µM.
Turning to `O=C(/C=C/c1ccccc1)c1ccc(O)cc1O` [2'.4'-DIHYDROXYCHALCONE], the “Inhibition (%)” value came out at 19.

With `C[N+](C)(CCOc1ccccc1)Cc1ccccc1.O=C([O-])c1cc2ccccc2cc1O` [BEPHENIUM HYDROXYNAPTHOATE], the “Inhibition (%)” value came out at 1.

Turning to `CC(=O)O[C@H]1CC[C@]2(C)C3=C(CC[C@H]2C1(C)C)[C@]1(C)CC[C@H]([C@H](C)CCC=C(C)C)[C@@]1(C)CC3` [LANOSTEROL ACETATE], the “Inhibition (%)” value stood at 1.

`NC(N)=NC(=O)c1nc(Cl)c(N2CCCCCC2)nc1N` [N.N-HEXAMETHYLENEAMILORIDE]: the “Inhibition (%)” value was 1.

With `CC12CCC3C(CC3(C)C)C(C)(CCC1=O)O2` (stereo not drawn) [3.7-EPOXYCARYOPHYLLAN-6-ONE], the “Inhibition (%)” value was found to be 1.

For the compound `CCOC(=O)c1ncn2c1CN(C)C(=O)c1cc(F)ccc1-2` [FUMAZENIL], the “Inhibition (%)” value is 0.

Consider `O=[N+]([O-])c1ccc(O)c([N+](=O)[O-])c1` [2.4-DINITROPHENOL], for which the “Inhibition (%)” value is listed as 4.

Turning to `OCC(O)C(O)C(O)CO` (stereo not drawn) [ARABITOL(D)], the “Inhibition (%)” value came out at 0.
